IC50 and Km data for two molecules are collected here from PMC2862721, “The Tegument of the Human Parasitic Worm Schistosoma mansoni as an Excretory Organ: The Surface Aquaporin SmAQP Is a Lactate Transporter” (PLoS ONE, 2010).

One data set has as its target T1, SmAQP (Schistosoma mansoni, UniProt C4PYI6).
T1 construct: gene AQP1; 304 aa membrane protein
T1 sequence (C4PYI6 1-304): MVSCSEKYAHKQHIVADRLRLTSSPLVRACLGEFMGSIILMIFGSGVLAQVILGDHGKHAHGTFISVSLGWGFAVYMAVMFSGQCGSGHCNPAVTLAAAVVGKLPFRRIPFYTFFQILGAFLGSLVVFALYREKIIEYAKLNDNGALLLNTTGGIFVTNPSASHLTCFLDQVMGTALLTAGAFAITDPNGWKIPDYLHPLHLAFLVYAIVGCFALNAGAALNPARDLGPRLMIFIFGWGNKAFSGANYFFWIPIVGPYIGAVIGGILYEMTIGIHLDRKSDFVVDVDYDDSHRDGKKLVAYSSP
The experiment in a line: inhibition of radiolabelled lactate uptake in Xenopus oocytes, variable-slope fit. It counts as cell-based. Conditions: read-out: Ki (half maximal inhibitory concentration); Ki50.

Substrate in data set [1]: C[C@H](O)C(=O)O
Briefly: cells, lysate or membranes. The format is cell-based, Schistosoma mansoni. Conditions: 0.1-100 mM lactate; labelled compound; non-injected oocyte values subtracted.

For the molecule `O=C(CCc1ccc(O)cc1)c1c(O)cc(O)cc1O` [phloretin], the IC50 at SmAQP was determined as 22 µM.

B1: SmAQP (Schistosoma mansoni) (protein)
chain: T1 sequence (C4PYI6 1-304)
notes: 304 aa membrane protein
One may read the Km as the concentration of substrate that gives half-maximal velocity. On to B1, for which the Km in data set [1] is 41 ± 5.8 mM.
